# Columns and labels:
# [1] = tested on: cancer cell W-2K-11; test: Growth inhibition of cancer cell W-2K-11 (percent inhibition of cell multiplication, Table 2); type: cell-based, mouse; conditions: Mus musculus, 48 hours after addition of sample, W-2K-11 cells; for inhibition at 1 µg/mL: concentration 1 μg/ml; for inhibition at 1 µg/mL / inhibition at 10 µg/mL / inhibition at 5 µg/mL: read-out: Percent inhibition (%); for inhibition at 10 µg/mL: concentration 10 μg/ml; for inhibition at 5 µg/mL: concentration 5 μg/ml
# Protocol: Cancer cell W-2K-11 was obtained by transforming fibroblast C3H-2K clone derived from kidney of mouse by cancerogenic virus. The cancer cell W-2K-11 was cultured by the following method.
# (1) Preparation of culture medium
# 9.4 Gram of Eagle's MEM culture media (manufactured by Nissui Seiyaku K. K.) was dissolved in 900 ml. of distilled water and the solution was sterilized under high pressure at 120° C. for 15 minutes and cooled. 100 Ml. of calf serum and 3-5 ml. of 10% aqueous solution of sodium bicarbonate were added to the solution to adjust pH to 7.1-7.2. 10 Ml. of an aqueous solution of L-glutamine (2.92 g./100 ml.) filtered by a millipore filter was added just before the use of the solution as culture medium.
# (2) Preparation of transplanted cell solution
# The cancer cell W-2K-11 stored in a freezer at -80° C. was melted at room temperature and treated by a centrifugal separator at 670 g. for 5 minutes. The precipitated cell was dispersed in 50 ml. of the culture medium (1). The suspension was charged into Roux flask and cultured at 37° C. The multiplication of the cells was initiated and accomplished after 3 to 4 days. The cultured mixture was decanted and 10 ml. of 0.2% trypsin solution was added and the mixture was kept at room temperature for 2 to 3 minutes and the trypsin mixture was decanted and then, 50 ml. of the culture medium (1) was added to prepare a suspension of cells.
# (3) Incubation of cells and addition of sample
# 1.8 Ml. of the suspension of cells (2) was charged into each Petri dish and incubated in a carbon dioxide gas incubator (5% of CO2; 95% of air) at 37° C. Twenty four hours after the initiation of the incubation, 0.2 ml. of each ethanol solution of each sample was added, and the incubation was continued. Forty eight hours after the addition of the sample, numbers of survival cells were counted under a microscopic observation and each percent inhibition of cell multiplication was calculated. [formula]
# [2] = Acute toxicity, LD50 to mouse by intraperitoneal injection (Table 3); conditions: in vivo, ip
# Protocol: LD50 of each sample to mouse was measured by intraperitoneal injection of each sample.
SMILES,inhibition at 1.2 µg/mL ([1]; concentration 1.2 μg/ml) [%],LD50 [2] [mg/kg],inhibition at 1 µg/mL [1] [%],inhibition at 10 µg/mL [1] [%],inhibition at 5 µg/mL [1] [%]
COC1=C2C[C@@H](C)C[C@H](OC)[C@H](O)[C@@H](C)/C=C(\C)[C@H](OC(N)=O)[C@@H](OC)/C=C\C=C(/C)C(=O)NC(=CC1=O)C2=O [Geldanamycin],61,15,,,
"COC1=C2CC(C)CC(OC)C(O)C(C)C3OC3(C)C(OC(N)=O)C(OC)C=CC=C(C)C(=O)NC(=CC1=O)C2=O (stereo not drawn) [Example 45, 8,9-epoxy-Geldanamycin]",,240,95,100,
"COC1=C2CC(C)CC(OC)C(O)C(C)C=C(C)C(OC(N)=O)C(OC)C=CC=C(C)C(=O)NC(=C(N(C)C)C1=O)C2=O (stereo not drawn) [Example 36, 19-dimethylamino-Geldanamycin]",,> 240,70,84,
COC1C=CC=C(C)C(=O)NC2=CC(=O)C(NCc3cccnc3)=C(CC(C)CC(OC)C(O)C(C)C=C(C)C1OC(N)=O)C2=O (stereo not drawn) [Example 29],,,,,92
COC1C=CC=C(C)C(=O)NC2=CC(=O)C(NCCc3ccccc3)=C(CC(C)CC(OC)C(O)C(C)C=C(C)C1OC(N)=O)C2=O (stereo not drawn) [Example 24],,,82,,
"COC1=C2CC(C)CC(OC)C(O)C(C)C=C(C)C(OC(N)=O)C(OC)C=CC=C(C)C(=O)N(C)C(=CC1=O)C2=O (stereo not drawn) [Example 41, 21-N-methyl-Geldanamycin]",,120,,82,
CCNC1=C2CC(C)CC(OC)C(O)C(C)/C=C(\C)C(OC(N)=O)C(OC)/C=C\C=C(/C)C(=O)NC(=CC1=O)C2=O (stereo not drawn) [Example 3],,120,90,,
CNCCNC1=C2CC(C)CC(OC)C(O)C(C)C=C(C)C(OC(N)=O)C(OC)C=CC=C(C)C(=O)NC(=CC1=O)C2=O (stereo not drawn) [Example 34],,,,,67
